Reference: publication PMC5207512, “Inhibition of Helicobacter pylori and Its Associated Urease by Palmatine: Investigation on the Potential Mechanism” (PLoS ONE, 2017)
pIC50: −log10 of the molar value. Where “and” joins values, the source holds several entries; their conditions need not be identical. Equal values may be shown once. Read-outs that look alike come from different tables or passages of the source.

Columns and labels:
[1] = molecular target: T1, jack bean urease (JBU) (Canavalia ensiformis, UniProt P07374); assay: biochemical; details: read-out: Residual urease activity (percent of control), Fig 4B JBU, Pal 0.5 mM, thiols 1.25 mM, replicates
T1 construct: Urease from jack bean (Canavalia ensiformis, JBU); purchased Sigma-Aldrich (St Louis, MO, USA) type III (catalogue number not given)
T1 sequence (P07374 whole entry, looked up): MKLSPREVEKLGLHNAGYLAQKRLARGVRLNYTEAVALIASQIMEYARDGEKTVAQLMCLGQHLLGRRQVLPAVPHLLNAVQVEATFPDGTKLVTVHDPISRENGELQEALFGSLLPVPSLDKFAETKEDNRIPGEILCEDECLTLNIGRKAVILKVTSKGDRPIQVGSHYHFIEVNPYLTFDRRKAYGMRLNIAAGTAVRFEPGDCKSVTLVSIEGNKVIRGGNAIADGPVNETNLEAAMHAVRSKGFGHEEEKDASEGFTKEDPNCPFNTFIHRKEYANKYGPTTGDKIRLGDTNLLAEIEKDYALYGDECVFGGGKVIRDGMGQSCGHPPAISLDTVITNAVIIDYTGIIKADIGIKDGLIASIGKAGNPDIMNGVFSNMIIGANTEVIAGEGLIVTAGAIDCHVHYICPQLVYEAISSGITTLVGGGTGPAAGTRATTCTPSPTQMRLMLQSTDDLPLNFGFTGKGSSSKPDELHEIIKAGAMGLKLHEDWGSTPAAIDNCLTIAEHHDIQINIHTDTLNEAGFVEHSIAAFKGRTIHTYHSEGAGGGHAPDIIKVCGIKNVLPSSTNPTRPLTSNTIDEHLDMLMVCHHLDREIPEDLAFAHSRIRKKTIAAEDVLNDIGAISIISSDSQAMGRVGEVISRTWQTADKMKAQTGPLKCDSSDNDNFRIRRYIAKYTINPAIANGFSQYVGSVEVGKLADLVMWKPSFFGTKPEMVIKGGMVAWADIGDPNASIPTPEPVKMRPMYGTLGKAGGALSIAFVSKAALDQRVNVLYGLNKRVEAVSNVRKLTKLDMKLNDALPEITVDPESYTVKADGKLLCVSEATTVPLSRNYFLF
Protocol: (§1) For the protection with thiols-containing compounds, the mixture consisting of 0.25 mg/mL urease (HPU or JBU), 0.5 mM Pal (for both HPU and JBU) and 1.25 mM thiols (DTT, GSH and L-cys) was incubated for 5, 10, 20, and 40 min at 37°C, respectively. The control sample instead of the protectors contained a proper volume of respective buffer.

[2] = molecular target: T2, H. pylori urease (HPU) (Helicobacter pylori, UniProt P69996); assay: biochemical; details: read-out: Residual urease activity (percent of control), Fig 4A HPU, Pal 0.5 mM, thiols 1.25 mM, replicates
T2 construct: HPU was prepared as previously described; made in house
T2 sequence (P14916 whole entry): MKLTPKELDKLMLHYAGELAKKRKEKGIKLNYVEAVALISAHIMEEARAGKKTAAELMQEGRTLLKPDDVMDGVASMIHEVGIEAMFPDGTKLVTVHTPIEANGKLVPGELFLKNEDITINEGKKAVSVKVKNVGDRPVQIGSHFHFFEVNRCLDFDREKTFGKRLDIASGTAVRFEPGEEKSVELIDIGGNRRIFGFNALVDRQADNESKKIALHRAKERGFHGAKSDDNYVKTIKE
T2 sequence (P69996 whole entry): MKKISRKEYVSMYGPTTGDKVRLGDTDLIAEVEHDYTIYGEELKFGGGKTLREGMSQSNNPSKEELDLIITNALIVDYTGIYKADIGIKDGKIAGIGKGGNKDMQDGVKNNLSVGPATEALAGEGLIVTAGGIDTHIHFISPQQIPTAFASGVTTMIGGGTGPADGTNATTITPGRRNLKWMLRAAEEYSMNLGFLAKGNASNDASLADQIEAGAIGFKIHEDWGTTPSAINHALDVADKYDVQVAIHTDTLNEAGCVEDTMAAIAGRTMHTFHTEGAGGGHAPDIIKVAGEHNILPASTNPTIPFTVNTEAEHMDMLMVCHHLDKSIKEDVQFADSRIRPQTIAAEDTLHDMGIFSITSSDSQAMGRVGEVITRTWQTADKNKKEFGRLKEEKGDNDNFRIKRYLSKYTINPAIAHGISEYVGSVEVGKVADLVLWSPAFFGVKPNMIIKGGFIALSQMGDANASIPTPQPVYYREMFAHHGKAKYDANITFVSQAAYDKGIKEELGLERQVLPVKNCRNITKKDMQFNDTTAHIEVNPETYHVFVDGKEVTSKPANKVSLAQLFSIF
Protocol: as §1

[3] = system: H. pylori SS1; assay: MIC by agar dilution method; type: cell-based; details: Helicobacter pylori
Protocol: (§2) A total of four H. pylori strains were studied, including three reference strains ATCC 43504, NCTC 26695 and SS1 gifted from Professor Richard Ferrero, Monash University, Australia, and one clinical isolate ICDC 111001 obtained from Professor Zhang Jianzhong, Chinese Center of Disease Control and Prevention. […] The MICs of Pal against the four H. pylori strains were evaluated by using agar dilution method. […] H. pylori strains were harvested and resuspended in PBS (1.0–2.0 McFarland were defined based on the strain properties). […] After 72 h, the MIC values were determined as the lowest concentration at which there was no strain growth judged by visual examination. Metronidazole was used as the positive control. The experiments were evaluated under two different pH (7.4 and 5.3) conditions and repeated twice.

[4] = system: H. pylori ATCC 43504; assay: MIC by agar dilution method; type: cell-based; details: Helicobacter pylori
Protocol: as §2

[5] = system: H. pylori NCTC 26695; assay: MIC by agar dilution method; type: cell-based; details: Helicobacter pylori
Protocol: as §2

[6] = system: H. pylori ICDC 111001 (clinical isolate); assay: MIC by agar dilution method; type: cell-based; details: Helicobacter pylori
Protocol: as §2

[7] = molecular target: T1, jack bean urease (JBU); assay: Urease inhibition test (modified Berthelot method); type: biochemical
Protocol: HPU was prepared as previously described. The standard urease assay mixture included 150 mM urea in 20 mM HEPES buffer (pH 7.5). After addition of small aliquots of enzyme-containing solution of urease, the assay ran for 20 min. The enzymatic activity was evaluated spectrophotometrically by detecting the ammonia concentration at 595 nm according to the modified Berthelot (phenol-hypochlorite) method. Urease activity was estimated with JBU as a standard, the specific activity of HPU was determined to be 17.0 U/mg. One unit of urease activity was defined as 1 μmol of ammonia released per min at 25°C. The amount of protein was determined by commercial Bradford Protein Assay Kit with BSA as a standard. The amount of ammonia released was decided from a standard curve. The activity of uninhibited urease was defined as the control activity of 100%.
Reaction mixtures comprising 0.25 mg/mL HPU or JBU and different concentrations of Pal or AHA at the volume ratio of 1:1, were incubated at 37°C in 20 mM HEPES buffer (pH 7.5) in the absence of urea. The reactions were initiated by mixing the urease and the inhibitor. The preincubation mixture was withdrawn at 20 min and immediately transferred into the standard assay mixtures for urease residual activity determination. Inhibition rate (%) was calculated following the formula: I % = (1-activity with inhibitors/activity without inhibitors) × 100%. The IC50 was expressed as the concentration of inhibitor that decreased urease activity by 50% and calculated by plotting the percent of inhibition. The experiments were triply performed.

In the case of `COc1cc2c(cc1OC)-c1cc3ccc(OC)c(OC)c3c[n+]1CC2` [Pal, Palmatine], the remaining activity at 500 µM ([1]; 5 min incubation) was 30.8%, the remaining activity at 500 µM ([1]; 10 min incubation) was 35.2% and the remaining activity at 500 µM ([1]; 20 min incubation) was 34.3%. The remaining activity at 500 µM ([1]; 40 min incubation) was 32.7%, the remaining activity at 500 µM ([2]; 5 min incubation) was 68.6% and the remaining activity at 500 µM ([2]; 10 min incubation) was 62.4%. The remaining activity at 500 µM ([2]; 20 min incubation) was 40.4%, the remaining activity at 500 µM ([2]; 40 min incubation) was 24.2% and the MIC ([3]; pH 5.3, 72 h) was 75 µg/mL. It also gave an MIC ([3]; pH 7.4, 72 h) of 100 µg/mL, an MIC ([4]; ATCC43504, pH 5.3, 72 h) of 75 µg/mL and an MIC ([4]; ATCC43504, pH 7.4, 72 h) of 100 µg/mL. The MIC ([5]; NCTC26695, pH 5.3, 72 h) was 100 µg/mL, the MIC ([5]; NCTC26695, pH 7.4, 72 h) was 200 µg/mL and the MIC ([6]; pH 5.3, 72 h) was 75 µg/mL. The MIC ([6]; pH 7.4, 72 h) was 100 µg/mL, the pIC50 [7] was 4.52 and the Residual activity ([7]; Fig 2B JBU, Pal 0.0149062 mM, replicates) was 54.1182% and 57.7693%. The Residual activity ([7]; Fig 2B JBU, Pal 0.0298125 mM, replicates) was 50.3004% and 49.1799%, the Residual activity ([7]; Fig 2B JBU, Pal 0.059625 mM, replicates) was 40.1092% and 41.6437% and the Residual activity ([7]; Fig 2B JBU, Pal 0.11925 mM, replicates) was 37.8863% and 32.26%. The Residual activity ([7]; Fig 2B JBU, Pal 0.2385 mM, replicates) was 38.5515% and 35.644%, the Residual activity ([7]; Fig 2B JBU, Pal 0.477 mM, replicates) was 32.5751% and 31.4745% and the Residual activity ([7]; Fig 2B JBU, Pal 0.954 mM, replicates) was 26.1588% and 18.0767%. The Residual activity ([7]; Fig 2D JBU, head prints Pal 0.00188802 mM, replicates) was 95.2237% and 88.9105%, the Residual activity ([7]; Fig 2D JBU, head prints Pal 0.00377605 mM, replicates) was 91.7722% and 82.8804% and the Residual activity ([7]; Fig 2D JBU, head prints Pal 0.00755209 mM, replicates) was 77.2806% and 78.6217%. For the same molecule, the Residual activity ([7]; Fig 2D JBU, head prints Pal 0.0151042 mM, replicates) was 56.6996% and 59.4273%, the Residual activity ([7]; Fig 2D JBU, head prints Pal 0.0302084 mM, replicates) was 37.3504% and 39.7719% and the Residual activity ([7]; Fig 2D JBU, head prints Pal 0.0604167 mM, replicates) was 24.6949% and 22.6887%. For the same molecule, the Residual activity ([7]; Fig 2D JBU, head prints Pal 0.120833 mM, replicates) was 12.8879% and 13.7831%, the Residual activity ([7]; Fig 2D JBU, head prints Pal 0.241667 mM, replicates) was 10.3312% and 12.3028% and the remaining activity at 14.9062 µM ([7]; read-out: Residual activity, Fig 2B JBU, Pal 0.0149062 mM, replicates) was 55.1%. The remaining activity at 29.8125 µM ([7]; read-out: Residual activity, Fig 2B JBU, Pal 0.0298125 mM, replicates) was 49%, the remaining activity at 59.625 µM ([7]; read-out: Residual activity, Fig 2B JBU, Pal 0.059625 mM, replicates) was 45.6% and the remaining activity at 119.25 µM ([7]; read-out: Residual activity, Fig 2B JBU, Pal 0.11925 mM, replicates) was 38.6%. The remaining activity at 238.5 µM ([7]; read-out: Residual activity, Fig 2B JBU, Pal 0.2385 mM, replicates) was 36.2%.
